Assay results as given in patent US5854204A, “Aβ peptides that modulate β-amyloid aggregation” (priority 1996, dated 1998).
Peptide text beside a SMILES is read from it. * marks the point of attachment. Cholyl = C[C@H](CCC(=O)*)[C@H]1CC[C@H]2[C@@H]3[C@H](O)C[C@@H]4C[C@H](O)CC[C@]4(C)[C@H]3C[C@H](O)[C@]12C

Tests used:
[1] = target: T1, Aβ1-40 (Homo sapiens, UniProt P05067); experiment: Seeded extension assay (thioflavin T fluorescence); format: biochemical; set-up: Natural β-AP (β-AP1-40) was obtained commercially from Bachem (Torrance, Calif.); purchased Bachem (Torrance, Calif.); conditions: Table V; 25 mole % inhibitor
Protocol: The seeded extension assay can be employed to measure the rate of Aβ fiber formed in a solution of Aβ monomer following addition of polymeric Aβ fiber "seed". The ability of test compounds to prevent further deposition of monomeric Aβ to previously deposited amyloid is determined using a direct indicator of β-sheet formation using fluorescence. In contrast with the nucleation assay, the addition of seed provides immediate nucleation and continued growth of preformed fibrils without the need for continuous mixing, and thus results in the absence of a lag time before polymerization starts. Since this assay uses static polymerization conditions, the activity of positive compounds in the nucleation assay can be confirmed in this second assay under different conditions and with an additional probe of amyloid structure.
Samples of the solution are then diluted in thioflavin T (Th-T). The polymer-specific association of Th-T with Aβ produces a fluorescent complex that allows the measurement of the extent of fibril formation (Levine, H. (1993) Protein Science 2:404-410). In particular, association of Th-T with aggregated β-AP, but not monomeric or loosely associated β-AP, gives rise to a new excitation (ex) maximum at 450 nm and an enhanced emission (em) at 482 nm, compared to the 385 nm (ex) and 445 nm (em) for the free dye. Small aliquots of the polymerization mixture contain sufficient fibril to be mixed with Th-T to allow the monitoring of the reaction mixture by repeated sampling. A linear growth curve is observed in the presence of excess monomer. The formation of thioflavin T responsive β-sheet fibrils parallels the increase in turbidity observed using the nucleation assay.
To prepare the stock seed, 1 ml of the Aβ monomer preparation, is incubated for approximately 8 days at 37° C. and sheared sequentially through an 18, 23, 26 and 30 gauge needle 25, 25, 50, and 100 times respectively. 2 μl samples of the sheared material is taken for fluorescence measurements after every 50 passes through the 30 gauge needle until the fluorescence units (FU) plateau (approx. 100-150×). Test compounds are prepared by dissolving an appropriate amount of test compound in 1× PBS to a final concentration of 1 mM (10× stock). If insoluble, the compound is dissolved in 1/10 volume of DMSO and diluted in 1× PBS to 1 mM. A further 1/10 dilution is also prepared to test each candidate at both 100 μM and 10 μM.
To perform the seeded extension assay, each sample is set up with 50 μl of 200 μM monomer, 125 FU sheared seed (a variable quantity dependent on the batch of seed, routinely 3-6 μl) and 10 μl of 10× modulator solution. The sample volume is then adjusted to a final volume of 100 μl with 1× PBS. Two concentrations of each modulator typically are tested: 100 μM and 10 μM, equivalent to a 1:1 and a 1:10 molar ratio of monomer to modulator. The controls include an unseeded reaction to confirm that the fresh monomer contains no seed, and a seeded reaction in the absence of any modulators, as a reference to compare against candidate modulators. The assay is incubated at 37° C. for 6 h, taking 2 μl samples hourly for fluorescence measurements. To measure fluorescence, a 2 μl sample of Aβ is added to 400 μl of Thioflavin-T solution (50 mM Potassium Phosphate […] pH 7.5). The samples are vortexed and the fluorescence is read in a 0.5 ml micro quartz cuvette at EX 450 nm and EM 482 nm (Hitachi 4500 Fluorimeter).
The modulators were evaluated in the nucleation and seeded extension assays described in Example 6 and the results are summarized below in Table V. The change in lag time (ΔLag) is presented as the ratio of the lag time observed in the presence of the test compound to the lag time of the control. […] Inhibition (% Inucl'n) is listed as the percent reduction in the maximum observed turbidity in the control at the end of the assay time period. […]

[2] = target: T1, Aβ1-40; experiment: biochemical; conditions: read-out: % Inucl'n (percent reduction in maximum turbidity)
Excerpt: (§1) The nucleation assay is employed to determine the ability of test compounds to alter (e.g. inhibit) the early events in formation of β-AP fibers from monomeric β-AP. […] The time delay before polymerization of β-AP monomer can be quantified as well as the extent of formation of insoluble fiber by light scattering (turbidity). Polymerization reaches equilibrium when the maximum turbidity reaches a plateau. […] The threshold of sensitivity for the measurement of turbidity is in the range of 15-20 μM β-AP. […] This assay can be performed using stirring or shaking to accelerate polymerization, thereby increasing the speed of the assay. Moreover the assay can be adapted to a 96-well plate format to screen multiple compounds.
(§2) HFIP-solubilized peptide is sonicated in a waterbath sonicator for 5 min at highest setting, then evaporated to dryness under a stream of argon. […] Test compounds are dissolved in DMSO at a 100× concentration. […] Ten microliters of the mixture is then added to the bottom of a well of a Corning Costar ultra low binding 96-well plate (Corning Costar, Cambridge Mass.; cat. No. 2500). […] The plate is then returned to the shaker and shaken continuously for 5 hours. Turbidity readings are taken at 15 minute intervals.
(§3) Accordingly a fold increase in lag time of 1.0 indicates no change in lag time, whereas numbers >1.0 indicate an increase in lag time. The "% inhibition of plateau", which is a measure of the ability of the compound to decrease the total amount of aggregation, refers to the reduction of the final turbidity in the presence of the test compound expressed as a percent of the control without the test compound.

[3] = target: T1, Aβ1-40; conditions: for ΔLag (ratio of lag time with test compound to lag time of control): Table V, 100 mole % inhibitor relative to Aβ1-40
Excerpt: as §1, §2, §3
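Throughout, for % Inhibition of Plateau: Aβ nucleation assay tracking fiber polymerization from monomer by turbidity (light scattering), shaken continuously in 96-well plates, read every 15 min over 5 h, compared with compound-free control.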
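Throughout, for Fold Increase in Lag Time: Aβ nucleation assay tracking fiber polymerization from monomer by turbidity (light scattering), shaken continuously in 96-well plates, read every 15 min over 5 h, compared with compound-free control.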
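Throughout, for ΔLag (ratio of lag time with test compound to lag time of control): Aβ nucleation assay tracking fiber polymerization from monomer by turbidity (light scattering), shaken continuously in 96-well plates, read every 15 min over 5 h, compared with compound-free control.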

T1 sequence (P05067 672-711): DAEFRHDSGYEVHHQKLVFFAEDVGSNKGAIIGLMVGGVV

CC(C)C[C@H](NC(=O)[C@H](CCCCN)NC(=O)CC[C@@H](C)[C@H]1CC[C@H]2[C@@H]3[C@H](O)C[C@@H]4C[C@H](O)CC[C@]4(C)[C@H]3C[C@H](O)[C@]12C)C(=O)N[C@H](C(=O)N[C@@H](Cc1ccccc1)C(=O)N[C@@H](Cc1ccccc1)C(N)=O)C(C)C [PPI-319, cholyl-Aβ16-20-amide]
% Iext'n (percent reduction of thioflavin-T fluorescence) [1]: 52%
inhibition at 100 % [2]: 70%
% Inhibition of Plateau [3]: ~ 0%

C[C@H](NC(=O)[C@H](C)NC(=O)[C@H](C)NC(=O)[C@H](C)NC(=O)[C@H](C)NC(=O)CC[C@@H](C)[C@H]1CC[C@H]2[C@@H]3[C@H](O)C[C@@H]4C[C@H](O)CC[C@]4(C)[C@H]3C[C@H](O)[C@]12C)C(=O)O [PPI-365, Cholyl-penta-alanine, reference compound]
% Iext'n (percent reduction of thioflavin-T fluorescence) [1]: 0%
inhibition at 100 % [2]: -7%
% Inhibition of Plateau [3]: ~ 0%

CC(C)C[C@H](NC(=O)CC[C@@H](C)[C@H]1CC[C@H]2[C@@H]3[C@H](O)C[C@@H]4C[C@H](O)CC[C@]4(C)[C@H]3C[C@H](O)[C@]12C)C(=O)N[C@H](C(=O)N[C@@H](Cc1ccccc1)C(=O)N[C@@H](Cc1ccccc1)C(=O)N[C@@H](C)C(=O)O)C(C)C [PPI-368, cholyl-Aβ17-21]
% Iext'n (percent reduction of thioflavin-T fluorescence) [1]: 91%
inhibition at 100 % [2]: 100%
% Inhibition of Plateau [3]: 100%

CC(C)C[C@H](NC(=O)[C@@H](N)CCCCN)C(=O)N[C@H](C(=O)N[C@@H](Cc1ccccc1)C(=O)N[C@@H](Cc1ccccc1)C(=O)O)C(C)C [PPI-377, Aβ16-20]
% Iext'n (percent reduction of thioflavin-T fluorescence) [1]: 8%
inhibition at 100 % [2]: 0%
Fold Increase in Lag Time ([3]; Table IV, 100 mole %): ~ 1 fold
ΔLag (ratio of lag time with test compound to lag time of control) [3]: 1.1

CC(C)C[C@H](N)C(=O)N[C@H](C(=O)N[C@@H](Cc1ccccc1)C(=O)N[C@@H](Cc1ccccc1)C(=O)N[C@@H](C)C(=O)O)C(C)C [PPI-386]
% Iext'n (percent reduction of thioflavin-T fluorescence) [1]: 11%
inhibition at 100 % [2]: 15%
ΔLag (ratio of lag time with test compound to lag time of control) [3]: 1.0

CC(C)[C@H](NC(=O)[C@H](C)NC(=O)CC[C@@H](C)[C@H]1CC[C@H]2[C@@H]3[C@H](O)C[C@@H]4C[C@H](O)CC[C@]4(C)[C@H]3C[C@H](O)[C@]12C)C(=O)N[C@@H](Cc1ccccc1)C(=O)N[C@@H](Cc1ccccc1)C(=O)N[C@@H](C)C(=O)O [PPI-388] (Cholyl-AVFFA-OH)
% Iext'n (percent reduction of thioflavin-T fluorescence) [1]: 44%
inhibition at 100 % [2]: 68%

CC(C)C[C@H](NC(=O)CC[C@@H](C)[C@H]1CC[C@H]2[C@@H]3[C@H](O)C[C@@H]4C[C@H](O)CC[C@]4(C)[C@H]3C[C@H](O)[C@]12C)C(=O)N[C@@H](C)C(=O)N[C@@H](Cc1ccccc1)C(=O)N[C@@H](Cc1ccccc1)C(=O)N[C@@H](C)C(=O)O [PPI-389] (Cholyl-LAFFA-OH)
% Iext'n (percent reduction of thioflavin-T fluorescence) [1]: 66%
inhibition at 100 % [2]: 47%

CC(C)C[C@H](NC(=O)CC[C@@H](C)[C@H]1CC[C@H]2[C@@H]3[C@H](O)C[C@@H]4C[C@H](O)CC[C@]4(C)[C@H]3C[C@H](O)[C@]12C)C(=O)N[C@H](C(=O)N[C@@H](C)C(=O)N[C@@H](Cc1ccccc1)C(=O)N[C@@H](C)C(=O)O)C(C)C [PPI-390] (Cholyl-LVAFA-OH)
% Iext'n (percent reduction of thioflavin-T fluorescence) [1]: 0%
inhibition at 100 % [2]: 25%

CC(C)[C@H](NC(=O)CC[C@@H](C)[C@H]1CC[C@H]2[C@@H]3[C@H](O)C[C@@H]4C[C@H](O)CC[C@]4(C)[C@H]3C[C@H](O)[C@]12C)C(=O)N[C@@H](Cc1ccccc1)C(=O)N[C@@H](Cc1ccccc1)C(=O)N[C@@H](C)C(=O)O [PPI-392] (Cholyl-VFFA-OH)
% Iext'n (percent reduction of thioflavin-T fluorescence) [1]: 10%
inhibition at 100 % [2]: 76%

CC(C)C[C@H](NC(=O)CC[C@@H](C)[C@H]1CC[C@H]2[C@@H]3[C@H](O)C[C@@H]4C[C@H](O)CC[C@]4(C)[C@H]3C[C@H](O)[C@]12C)C(=O)N[C@H](C(=O)N[C@@H](Cc1ccccc1)C(=O)O)C(C)C [PPI-393]
% Iext'n (percent reduction of thioflavin-T fluorescence) [1]: 0%
inhibition at 100 % [2]: 1%

CC(C)[C@H](NC(=O)CC[C@@H](C)[C@H]1CC[C@H]2[C@@H]3[C@H](O)C[C@@H]4C[C@H](O)CC[C@]4(C)[C@H]3C[C@H](O)[C@]12C)C(=O)N[C@@H](Cc1ccccc1)C(=O)N[C@@H](Cc1ccccc1)C(=O)O [PPI-394]
% Iext'n (percent reduction of thioflavin-T fluorescence) [1]: 0%
inhibition at 100 % [2]: 55%

C[C@H](NC(=O)[C@H](Cc1ccccc1)NC(=O)[C@H](Cc1ccccc1)NC(=O)CC[C@@H](C)[C@H]1CC[C@H]2[C@@H]3[C@H](O)C[C@@H]4C[C@H](O)CC[C@]4(C)[C@H]3C[C@H](O)[C@]12C)C(=O)O [PPI-395]
% Iext'n (percent reduction of thioflavin-T fluorescence) [1]: 6%
inhibition at 100 % [2]: 51%

CC(C)C[C@H](NC(=O)CC[C@@H](C)[C@H]1CC[C@H]2[C@@H]3[C@H](O)C[C@@H]4C[C@H](O)CC[C@]4(C)[C@H]3C[C@H](O)[C@]12C)C(=O)N[C@H](C(=O)N[C@@H](Cc1ccccc1)C(=O)N[C@@H](Cc1ccccc1)C(=O)N[C@@H](CCCCN)C(=O)O)C(C)C [PPI-407] (Cholyl-LVFFK-OH)
% Iext'n (percent reduction of thioflavin-T fluorescence) [1]: 85%
inhibition at 33 % [2]: 100%

CC(C)C[C@H](NC(=O)[C@@H](NC(=O)[C@H](Cc1ccccc1)NC(=O)[C@H](Cc1ccccc1)NC(=O)CC[C@@H](C)[C@H]1CC[C@H]2[C@@H]3[C@H](O)C[C@@H]4C[C@H](O)CC[C@]4(C)[C@H]3C[C@H](O)[C@]12C)C(C)C)C(=O)N[C@@H](C)C(=O)O [PPI-426] (Cholyl-FFVLA-OH)
% Iext'n (percent reduction of thioflavin-T fluorescence) [1]: 89%
inhibition at 100 % [2]: 100%

CC(C)[C@H](NC(=O)[C@H](Cc1ccccc1)NC(=O)[C@H](Cc1ccccc1)NC(=O)CC[C@@H](C)[C@H]1CC[C@H]2[C@@H]3[C@H](O)C[C@@H]4C[C@H](O)CC[C@]4(C)[C@H]3C[C@H](O)[C@]12C)C(=O)O [PPI-429]
% Iext'n (percent reduction of thioflavin-T fluorescence) [1]: 7%
inhibition at 100 % [2]: -33%

CC(C)C[C@H](NC(=O)[C@@H](NC(=O)[C@H](Cc1ccccc1)NC(=O)[C@H](Cc1ccccc1)NC(=O)CC[C@@H](C)[C@H]1CC[C@H]2[C@@H]3[C@H](O)C[C@@H]4C[C@H](O)CC[C@]4(C)[C@H]3C[C@H](O)[C@]12C)C(C)C)C(=O)O [PPI-430] (Cholyl-FFVL-OH)
% Iext'n (percent reduction of thioflavin-T fluorescence) [1]: 75%
inhibition at 100 % [2]: 33%
